Blank lines part the entries; values can stand above or below the molecule they belong to.
What was measured:
β-catenin = experiment: Western blot of cytosolic β-catenin in UMR-106 cells; assay type: cell-based, rat
Experimental: (§1) Cells were harvested in cavitation buffer (5 mM HEPES, pH 7.4, 3 mM MgCl2, 1 mM EGTA, 250 mM sucrose) containing protease and phosphatase inhibitors and homogenized by nitrogen cavitation (200 p.s.i., for 5 minutes) in a cell disruption bomb (Parr Instrument Co.; Moline, Ill.). The cell homogenate was centrifuged twice at 700 g for 10 minutes to pellet the nuclei. The supernatant was further centrifuged at 100,000 g (Beckman SW50.1 rotor) for 1 hour to separate the membrane and cytosol fractions, and the resulting membrane pellet was washed three times with cavitation buffer before use in the assays (Zhang et al., Biochem. J. 343:541-9 (1999)). Immunoprecipitation and Western blot analysis of cell lysates were performed as described previously (Wan et al., Am. J. Pathol. 166:1379-92 (2005)).

axin-LRP6 binding = experiment: Co-IP of axin binding to LRP6 in HEK293 cells; assay type: cell-based
Experimental: as §1

LRP6 = LRP6 phosphorylation at PPPSP motifs, western blotting with Ab1490, UMR-106 cells; assay type: cell-based, rat; conditions: cells not given
Experimental: as §1
As phosphorylation of LRP6 at the PPPSP motifs plays a crucial role in activating downstream β-catenin signaling by Wnt, whether PTH induces phosphorylation of LRP6 at PPPSP motifs (Mao et al., Mol. Cell. 7:801-9 (2001); Tamai et al., Mol. Cell. 13:149-56 (2004); Davidson et al., Nature 438:867-72 (2005); Zeng et al., Nature 438:873-7 (2005)). Immunoprecipitated LRP6 from extracts of PTH-treated UMR-106 cells were monitored for their phosphorylation, by western blotting, with an antibody that recognizes phosphorylated PPPSP motifs (Ab1490) (Tamai et al., Mol. Cell. 13:149-56 (2004)). […] Phosphorylation of PPPSP motifs is required for axin recruitment from cytoplasm to LRP6 at cell membrane. […] Fz8CRD, a competitive inhibitor of the Wnt receptor Fz (Hsieh et al., Proc. Natl. Acad. Sci. USA 96:3546-55 (1999)), was used to exclude the possibility that these PTH effects are mediated through promotion of Wnts production or sensitization of Wnt-stimulated signaling. […] In contrast, LRP6N blocked PTH-stimulated LRP6 phosphorylation (FIG. 33).

[1] = tested on: luciferase reporter bearing TCF/LEF binding elements; experiment: TCF/LEF luciferase reporter assay in UMR-106 cells; assay type: cell-based, rat; conditions: for effect on PTH-stimulated TCF/LEF luciferase (transcriptional) activity: UMR-106 cells treated with PTH
From the text: HEK293, UMR-106 and mouse embryonic fibroblast (MEF) cells were maintained in Dulbecco's Modified Eagle Medium (DMEM) with 10% Fetal Calf Serum (FCS). Mouse Wnt3a conditioned medium (Wnt3a CM) was produced from mouse L cells stably transfected with mouse Wnt3a (American Type Culture Collection; Manassas, Va.) and control conditioned medium (Control CM) was from non-transfected L cells. IgG, LRP6N-IgG, DKK1, Sclerostin, VSVG-LRP6N and Myc-Fz8CRD conditioned media were produced from HEK 293 cells transfected with the individual plasmids. Transfections were carried out using lipofectamine reagent (Invitrogen; Carlsbad, Calif.). Luciferase assays were carried out in either UMR-106 or HEK 293 cells as described previously (Wan et al., Am. J. Pathol. 166:1379-92 (2005)), with 0.3 μg of TCF-Luc reporter plasmid plus 50 ng of Renilla luciferase plasmid (internal control) per well in the 12-well plate. Experiments were repeated at least three times with triplicate for each experiment.

[2] = tested on: TCF/LEF luciferase reporter; experiment: High-throughput screen validation, TCF/LEF luciferase reporter in osteosarcoma cell line; assay type: cell-based; conditions: 96-well plate
Experimental: Osteosarcoma cells were plated in a 96 well plate. The cells were transiently transfected with the TCF/LEF luciferase reporter using LipofectAMINE PLUS (Invitrogen; Carlsbad, Calif.). The cells were incubated overnight at 37° C. in OptiMEM-1 serum-free medium with the transfection reagents. The cells were washed and serum-containing medium was added to the cells for 8 hours. The serum-containing medium was replaced with serum-free medium and the cells were stimulated overnight with PTH and WNT3a. Supernatant from the stimulated cells was collected for detection of osteosclerostin, and the cells were subjected to a luciferase assay as previously described (Wan et al., Am. J. Pathol. 166:1379-92 (2005)).
To determine agonists and antagonists of the additive signaling of the PTH receptor and the WNT receptor, (as well as any co-receptors) in bone cells, a high-throughput screen is designed. […] An osteosarcoma cell line is transiently transfected with a TCF/LEF luciferase reporter. The cells are treated with WNT3a and PTH and luciferase activity is determined (FIG. 46).

PTH1R on cell surface = molecular target: T1, PTH1R on cell surface (Homo sapiens, UniProt Q03431); experiment: Cell surface binding by immunofluorescence colocalization assay; assay type: cell-based
T1 construct: HA; expressed in transfected cells; LRP6N-IgG conditioned medium came from transfected HEK 293 cells
T1 sequence (Q03431 27-593): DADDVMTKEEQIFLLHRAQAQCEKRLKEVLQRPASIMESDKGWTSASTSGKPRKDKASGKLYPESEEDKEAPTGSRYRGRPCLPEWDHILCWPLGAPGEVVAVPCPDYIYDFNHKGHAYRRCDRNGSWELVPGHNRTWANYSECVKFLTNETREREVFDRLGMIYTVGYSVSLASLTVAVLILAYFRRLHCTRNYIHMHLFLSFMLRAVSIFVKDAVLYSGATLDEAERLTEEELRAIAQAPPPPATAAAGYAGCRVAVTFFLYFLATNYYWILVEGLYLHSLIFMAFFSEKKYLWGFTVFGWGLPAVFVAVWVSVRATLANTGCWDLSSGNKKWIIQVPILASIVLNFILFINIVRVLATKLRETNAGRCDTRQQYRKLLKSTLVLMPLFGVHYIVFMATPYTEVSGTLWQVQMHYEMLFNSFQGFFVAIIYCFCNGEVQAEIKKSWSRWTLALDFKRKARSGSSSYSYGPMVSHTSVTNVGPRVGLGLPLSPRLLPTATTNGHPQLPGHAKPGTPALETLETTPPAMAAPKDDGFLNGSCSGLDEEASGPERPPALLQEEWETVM
Experimental: Cells were transfected with HA-PTH1R and treated with IgG conditioned medium or LRP6N-IgG conditioned medium for 1 hour followed by PTH (1-84) treatment for 15 minutes. Cells were then washed with phosphate buffered saline (PBS), fixed with 4% paraformaldehyde, permeabilized with 0.1% Triton X-100, and incubated with primary antibody followed by incubation with chromophore-conjugated secondary antibody. Digital pictures were taken using an Olympus, IX TRINOC camera fitted to an Olympus, IX70 Inverted Research Microscope (Olympus; Center Valley, Pa.) with objective lenses of Hoffman Modulation Contrast®, HMC 10 LWD PL FL, 0.3NA ∝/1, at room temperature, and processed using MagnaFire® SP imaging software. A […] TCs SP2 system was used for confocal imaging. The ratios of the number of cells showing in green to the number of cells showing in red were calculated. For each treatment, 100 cells on each of three different slides were analyzed.

LRP6-PTH1R complex = molecular target: T2, LRP6-PTH1R complex (Rattus norvegicus, UniProt P25961); experiment: Co-immunoprecipitation of endogenous LRP6 and PTH1R in UMR-106 cells; assay type: cell-based
T2 construct: endogenous LRP6 and endogenous PTH1R in UMR-106 cells; endogenous in cells; host or cells: UMR-106
T2 sequence (P25961 27-591): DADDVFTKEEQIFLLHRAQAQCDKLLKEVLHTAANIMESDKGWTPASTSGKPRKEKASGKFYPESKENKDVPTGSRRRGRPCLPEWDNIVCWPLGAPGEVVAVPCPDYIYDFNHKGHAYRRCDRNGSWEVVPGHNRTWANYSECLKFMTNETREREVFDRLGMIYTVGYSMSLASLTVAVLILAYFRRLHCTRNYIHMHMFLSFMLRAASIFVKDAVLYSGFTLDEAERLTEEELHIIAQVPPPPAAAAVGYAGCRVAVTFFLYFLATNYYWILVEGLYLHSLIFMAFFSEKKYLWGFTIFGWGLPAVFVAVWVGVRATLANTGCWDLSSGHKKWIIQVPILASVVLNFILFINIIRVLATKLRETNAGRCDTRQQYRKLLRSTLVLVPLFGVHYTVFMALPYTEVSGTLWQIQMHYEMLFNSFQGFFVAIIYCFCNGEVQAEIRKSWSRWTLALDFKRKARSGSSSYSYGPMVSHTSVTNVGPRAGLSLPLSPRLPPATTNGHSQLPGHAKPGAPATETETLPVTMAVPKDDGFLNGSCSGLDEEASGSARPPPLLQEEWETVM
Experimental: as §1

Molecule: O=S(=O)(NCCNC/C=C/c1ccc(Br)cc1)c1cccc2cnccc12 [H89]
effect on PTH-induced β-catenin stabilization (β-catenin): reduced
effect on Wnt3a-stimulated β-catenin stabilization (β-catenin): did not affect
effect on binding of axin to LRP6 in cells treated with PTH (axin-LRP6 binding; PTH-treated cells): reduced
effect on Wnt3a-stimulated LRP6 phosphorylation (LRP6): did not affect
effect on Wnt3a-stimulated β-catenin-dependent transcription activity (TCF4/LEF luciferase) ([1]; UMR-106 cells): did not affect
effect on PTH-stimulated TCF/LEF luciferase (transcriptional) activity [1]: reduced

Molecule: PTH (39-84): C-terminal fragment of PTH; binds PTH1R but does not activate PKA (APLAPRDAGSQRPRKKEDNVLVESHEKSLGEADKADVNVLTKAKSQ; Parathyroid hormone; UniProt P01270 70-115, looked up, fragment)
altering the stability of β-catenin compared with PTH (1-84) (β-catenin): much less effective than PTH (1-84)
inducing axin-LRP6 binding compared with PTH (1-84) (axin-LRP6 binding): much less effective than PTH (1-84)
activating β-catenin signaling (TCF4/LEF luciferase) compared with PTH (1-84) ([1]; UMR-106 cells): much less effective than PTH (1-84)

Molecule: WNT3a
stimulation of the TCF/LEF luciferase reporter, treatment alone [2]: stimulates

immuno-colocalization with PTH1R on cell surface (PTH1R on cell surface; with addition of PTH ligand (PTH (1-84), 15 minutes)): 82.3%
immuno-colocalization with PTH1R on cell surface (PTH1R on cell surface; without PTH ligand, cells transfected with HA-PTH1R): 22.8%
B1: LRP6N-IgG: LRP6 extracellular domain fused with IgG (protein)
chain: APLLLYANRRDLRLVDATNGKENATIVVGGLEDAAAVDFVFSHGLIYWSDVSEEAIKRTEFNKTESVQNVVVSGLLSPDGLACDWLGEKLYWTDSETNRIEVSNLDGSLRKVLFWQELDQPRAIALDPSSGFMYWTDWGEVPKIERAGMDGSSRFIIINSEIYWPNGLTLDYEEQKLYWADAKLNFIHKSNLDGTNRQAVVKGSLPHPFALTLFEDILYWTDWSTHSILACNKYTGEGLREIHSDIFSPMDIHAFSQQRQPNATNPCGIDNGGCSHLCLMSPVKPFYQCACPTGVKLLENGKTCKDGATELLLLARRTDLRRISLDTPDFTDIVLQLEDIRHAIAIDYDPVEGYIYWTDDEVRAIRRSFIDGSGSQFVVTAQIAHPDGIAVDWVARNLYWTDTGTDRIEVTRLNGTMRKILISEDLEEPRAIVLDPMVGYMYWTDWGEIPKIERAALDGSDRVVLVNTSLGWPNGLALDYDEGKIYWGDAKTDKIEVMNTDGTGRRVLVEDKIPHIFGFTLLGDYVYWTDWQRRSIERVHKRSAEREVIIDQLPDLMGLKATNVHRVIGSNPCAEENGGCSHLCLYRPQGLRCACPIGFELISDMKTCIVPEAFLLFSRRADIRRISLETNNNNVAIPLTGVKEASALDFDVTDNRIYWTDISLKTISRAFMNGSALEHVVEFGLDYPEGMAVDWLGKNLYWADTGTNRIEVSKLDGQHRQVLVWKDLDSPRALALDPAEGFMYWTEWGGKPKIDRAAMDGSERTTLVPNVGRANGLTIDYAKRRLYWTDLDTNLIESSNMLGLNREVIADDLPHPFGLTQYQDYIYWTDWSRRSIERANKTSGQNRTIIQGHLDYVMDILVFHSSRQSGWNECASSNGHCSHLCLAVPVGGFVCGCPAHYSLNADNRTCSAPTTFLLFSQKSAINRMVIDEQQSPDIILPIHSLRNVRAIDYDPLDKQLYWIDSRQNMIRKAQEDGSQGFTVVVSSVPSQNLEIQPYDLSIDIYSRYIYWTCEATNVINVTRLDGRSVGVVLKGEQDRPRAVVVNPEKGYMYFTNLQERSPKIERAALDGTEREVLFFSGLSKPIALALDSRLGKLFWADSDLRRIESSDLSGANRIVLEDSNILQPVGLTVFENWLYWIDKQQQMIEKIDMTGREGRTKVQARIAQLSDIHAVKELNLQEYRQHPCAQDNGGCSHICLVKGDGTTRCSCPMHLVLLQDELSCGEPPTCSPQQFTCFTGEIDCIPVAWRCDGFTECEDHSDELNCPVCSESQFQCASGQCIDGALRCNGDANCQDKSDEKNCEVLCLIDQFRCANGQCIGKHKKCDHNVDCSDKSDELDCYPTEEPAPQA
modifications: left off: a dimerising Fc or GST

effect on PTH-induced association of endogenous LRP6 with PTH1R (LRP6-PTH1R complex): blocked
B2: LRP6N: soluble N-terminal (extracellular) domain of LRP6; acts as a dominant-negative in PTH signaling (protein)
chain: B1 chain
modifications: left off: a dimerising Fc or GST
notes: soluble N-terminal (extracellular) domain of LRP6; acts as a dominant-negative in PTH signaling
effect on PTH-stimulated LRP6 phosphorylation (LRP6; endogenous LRP6): blocked
effect on PTH-stimulated TCF/LEF luciferase (transcriptional) activity [1]: inhibited
